PubChem BioAssay AID1996
Converted amounts (≈) assume the structure as drawn.

Conditions: buffer; pH 7.4; 200.0 µM

Compound | solubility kinetic
CCOC(=O)c1c2c3c(cccc3[nH]c1=O)C(=O)c1ccccc1-2 | < 0.7 µg/mL
N#CC1(NC(=O)CSc2nc3ccccc3o2)CCCCC1 | > 47.3 µg/mL
Cc1ccc(C2CCN(C(=S)Nc3cccc(Cl)c3)C2)cc1 (configuration not stated) | < 0.4 µg/mL
CCOC(=O)N1CCN(c2cc(=O)n(C)c(=O)n2C)CC1 | > 44.4 µg/mL
Cc1ccc(CNc2cnccn2)s1 | 30 µg/mL (≈ 146 µM)
CCOC(=O)c1ccc2nc(C)c(C)nc2c1 | 31.3 µg/mL (≈ 136 µM)
Cc1ccc(C)c(S(=O)(=O)N2CCCN(C)CC2)c1 | > 42.4 µg/mL
Cc1ccc(CSCC(=O)NCc2cccs2)cc1 | 41.9 µg/mL (≈ 144 µM)
Cc1cc(NC(=O)COc2ccc(C(C)(C)C)cc2)no1 | 2 µg/mL (≈ 6.94 µM)
O=C(NCc1ccncc1)NC1CCCCC1 | > 35 µg/mL
O=C(Nc1cccc(Cl)c1)N1C[C@H]2C[C@@H](C1)c1cccc(=O)n1C2 | > 51.6 µg/mL
COc1ccc(NC(=S)NCc2ccccn2)cc1OC | > 45.5 µg/mL
COc1ccc(/C=C(\C)C(=O)c2c(C)cc(C)[nH]c2=O)cc1 | 42.9 µg/mL (≈ 144 µM)
O=[N+]([O-])c1ccccc1S(=O)(=O)NCCc1ccncc1 | 43.8 µg/mL (≈ 143 µM)
O=C(NC1CCS(=O)(=O)C1)c1cccnc1 (configuration not stated) | 26.1 µg/mL (≈ 109 µM)
COc1ccc(C(=O)Nc2ccc3[nH]ccc3c2)cc1 | > 39.9 µg/mL
COc1ccc(NC(=O)NCc2ccccn2)c(OC)c1 | 42.1 µg/mL (≈ 147 µM)
N#Cc1cccc(C#N)c1NCC1CCCO1 (configuration not stated) | > 34.1 µg/mL
Cc1csc(NC(=O)c2ccc3c(c2)OCO3)n1 | 31.4 µg/mL (≈ 120 µM)
COc1ccc2[nH]c(C(=O)NCCc3ccccc3)cc2c1 | 1 µg/mL (≈ 3.4 µM)
CCN1CCc2c(C#N)c(NCc3ccccc3)nc(NCCO)c2C1 | 6.3 µg/mL (≈ 17.9 µM)
Cc1cc(=O)c2ccc(C(F)(F)F)cc2[nH]1 | > 34.1 µg/mL
Cc1cc(C(=O)N2CCC(Cc3ccccc3)CC2)c(C)o1 | 41.6 µg/mL (≈ 140 µM)
O=C(COc1cccnc1[N+](=O)[O-])Nc1cccc2ccccc12 | 22.7 µg/mL (≈ 70.2 µM)
COc1ccc(S(=O)(=O)N2CCOCC2)c2ccccc12 | 40.6 µg/mL (≈ 132 µM)

Compound | solubility kinetic
CCN1CC2([N+](=O)[O-])CC=C(Cl)C([N+](=O)[O-])(C1)C2 (configuration not stated) | 28.4 µg/mL (≈ 103 µM)
O=C1Nc2ccc(S(=O)(=O)N(CCO)CCO)c3cccc1c23 | > 50.5 µg/mL
COc1ccc(C(=O)NC(C)CCc2ccccc2)c(O)c1 (configuration not stated) | 15.2 µg/mL (≈ 50.8 µM)
CC(=O)OCCNc1cc(SC(C)C)c2nonc2c1[N+](=O)[O-] | 4.1 µg/mL (≈ 12 µM)
O=C1OC(CCl)CN1Cc1c(Cl)cccc1Cl (configuration not stated) | 41.9 µg/mL (≈ 142 µM)
O=C(NN=C1CCCC1)C1COc2ccccc2O1 (configuration not stated) | > 39 µg/mL
CC1CN(CC(=O)Nc2ccc(Br)cn2)CC(C)O1 (configuration not stated) | > 49.2 µg/mL
CCCCNC(=O)N1CCN(c2ccnc3cc(Cl)ccc23)CC1 | > 52 µg/mL
CC1=C(C(=O)OCc2ccccc2)C(c2ccccc2)NC(=O)N1 (configuration not stated) | 2.8 µg/mL (≈ 8.69 µM)
Cc1ccccc1CSCC(=O)Nc1ccccc1F | 27.9 µg/mL (≈ 96.4 µM)
Cc1cccc2nc(CSc3ncccc3C(=O)O)cn12 | 39.3 µg/mL (≈ 131 µM)
COCCNC(=O)/C(C#N)=C/c1ccc(O)c([N+](=O)[O-])c1 | > 43.7 µg/mL
O=C(Nc1ccc(F)c(Cl)c1)C1CC2CCC1C2 (configuration not stated) | 2.8 µg/mL (≈ 10.5 µM)
CCN1C(=O)C(=O)N(CC(=O)N(C)CC(=O)Nc2ccccc2C(F)(F)F)C1=O | > 62.1 µg/mL
O=C(COC(=O)/C=C/c1ccco1)NCc1ccc(Cl)cc1Cl | 7.6 µg/mL (≈ 21.5 µM)
COC(=O)c1cccc(NS(C)(=O)=O)c1 | > 34.4 µg/mL
Cc1ccc2c(c1)N(CC(=O)NC1CCCC1)C(=O)CO2 | > 43.3 µg/mL
NS(=O)(=O)c1cccc(NC(=O)c2ccc(NS(=O)(=O)c3cccc([N+](=O)[O-])c3)cc2)c1 | > 71.5 µg/mL
O=C(CNC(=O)c1ccccc1)NCCc1ccc(O)c(O)c1 | > 47.2 µg/mL
N#Cc1cc([N+](=O)[O-])ccc1NC(=O)COC(=O)CN1C(=O)C2CCCCC2C1=O (configuration not stated) | > 62.2 µg/mL
CCOC(=O)C1(CC2CC2)CCN(C(=O)c2cccnc2C)CC1 | > 49.6 µg/mL
Cc1ccc(N2C(=O)C(F)(F)C2c2ccccc2)cc1 (configuration not stated) | 1 µg/mL (≈ 3.66 µM)
O=C1CC2(CCN(C(=O)c3cccc(F)c3)CC2)Oc2ccccc21 | > 50.9 µg/mL
O=S(=O)(c1ccc(F)c(F)c1)N1CCN(c2ncccn2)CC1 | 2.3 µg/mL (≈ 6.76 µM)
O=C(NC1=NCCS1)c1ccc(Cl)cc1 | 11.5 µg/mL (≈ 47.8 µM)

Compound | solubility kinetic
CN(C)CCCNC1=CC(=O)CC(c2ccccc2)C1 (configuration not stated) | 34.8 µg/mL (≈ 128 µM)
CCCCC1C2C(=O)N(c3ccccc3)C(=O)C2ON1c1ccccc1 (configuration not stated) | 49.1 µg/mL (≈ 140 µM)
COc1cc(C(=O)Nc2nc3ccccc3[nH]2)ccc1OC(F)F | 1 µg/mL (≈ 3 µM)
Cn1c(-c2ccncc2)nc2ccccc21 | > 31.4 µg/mL
CC(NC(=O)CSc1nc2ccccc2n1C)c1ccccc1 (configuration not stated) | > 48.8 µg/mL
Cc1cc(Nc2cc(Cl)cc(Cl)c2)nc(N)n1 | 20 µg/mL (≈ 74.3 µM)
C/C(=C/c1ccccc1)C(=O)N1CCN(c2ccccc2)CC1 | 37.1 µg/mL (≈ 121 µM)
Cl.O=C(CCN1CCOCC1)NC12CC3CC(CC(C3)C1)C2 | 48.9 µg/mL
COc1ccccc1C(=O)C1CCCN(C(=O)Nc2ccccc2F)C1 (configuration not stated) | > 53.5 µg/mL
CCOc1ccc(CN2CCC(Cc3ccccc3)CC2)cc1 | 24.3 µg/mL (≈ 78.5 µM)
Cc1ccc(CN(C)CC(=O)Nc2ccc3c(c2)CCC3)cc1 | 5.4 µg/mL (≈ 17.5 µM)
COc1ccccc1NS(=O)(=O)c1ccc2c(c1)OCCO2 | 48 µg/mL (≈ 149 µM)
Cc1cccc(-n2c(C)nc3ccccc3c2=O)c1C | > 39.6 µg/mL
CCCOc1ccc(N2C(=O)CC(N(CCCO)C(=O)CC)C2=O)cc1 (configuration not stated) | > 54.4 µg/mL
O=C(NC1CCCCNC1=O)c1ccccc1 (configuration not stated) | > 34.8 µg/mL
N#Cc1ccccc1NC(=O)CN1CC=C(c2ccccc2)CC1 | 15.7 µg/mL (≈ 49.5 µM)
CCOc1ccc(NC(=S)N(CCc2ccncc2)C(C)C)cc1 | 48.8 µg/mL (≈ 142 µM)
O=C(NC(=S)NC1CCCC1)c1ccccc1 | 16.9 µg/mL (≈ 68 µM)
Cc1ccc(OCCNC(=O)c2ccc(C)o2)cc1 | > 38.9 µg/mL
CCc1ccc2oc(C(=O)N3CCN(C)CC3)cc(=O)c2c1 | > 45.1 µg/mL
O=C(O)CNS(=O)(=O)c1cccc(Cl)c1 | > 37.5 µg/mL
O=C(CN1C(=O)COc2ccccc21)NCCCN1CCCC1 | > 47.6 µg/mL
O=C(Nc1ccc2[nH]c(=O)[nH]c2c1)c1ccc([N+](=O)[O-])o1 | 15.6 µg/mL (≈ 54.1 µM)
CCSc1nc(C)nc2sc(C)c(C)c12 | < 0.3 µg/mL
Cn1c(=O)c2c([nH]c(=S)n2Cc2ccc(Cl)cc2)n(C)c1=O | > 50.5 µg/mL

Compound | solubility kinetic
CCc1ccc(C(=O)Nc2nc(C)cs2)s1 | 32.9 µg/mL (≈ 130 µM)
Cc1cc(N/N=C/c2ccc(O)cc2O)nc(N2CCOCC2)n1 | > 49.4 µg/mL
O=C(Nc1ccc(Cl)cc1)NC1CCCCNC1=O (configuration not stated) | > 42.3 µg/mL
Cc1csc2c(=O)sc(NC(=O)c3ccc(F)cc3Cl)nc12 | < 0.4 µg/mL
O=C(C(=O)N1CCN(c2ccccc2)CC1)c1c[nH]c2ccccc12 | 2 µg/mL (≈ 6 µM)
COCCNS(=O)(=O)c1cc(OC)ccc1OC | > 41.3 µg/mL
CCN1CCN(c2ccc(N=Cc3ccccc3O)cc2)CC1 | 40.7 µg/mL (≈ 132 µM)
Cc1cccc(C)c1N1C(=O)C(Cl)=C(N2CCCC2)C1=O | 31.2 µg/mL (≈ 102 µM)
C[N+](C)=C1SCC(C)(/C=N/O)S1.[Br-] (configuration not stated) | > 42.8 µg/mL
COc1ccc(C(=O)NCC(=O)N/N=C(\C)c2ccco2)cc1OC | > 51.8 µg/mL
COc1ccc(CCCc2n[nH]c(=S)o2)cc1C | > 39.7 µg/mL
CC1=C(c2ccccc2)C(=S)NC(C)(C)C1 | 2.5 µg/mL (≈ 10.8 µM)
O=C(COC(=O)c1ccccc1O)Nc1ccc2ccccc2c1 | 6.2 µg/mL (≈ 19.3 µM)
Cc1ccc2c(c1)sc(C)[n+]2CCCS(=O)(=O)[O-] | > 42.8 µg/mL
CCOC(=O)C1=C(C)NC(C)=C(C(=O)OCC)C1C(=O)OCC(=O)NCCc1ccccc1 | > 68.8 µg/mL
CC(Nc1nc(C(F)(F)F)nc2ccccc12)c1cccs1 (configuration not stated) | 6.5 µg/mL (≈ 20.1 µM)
CC(C)C1(CCNC(=O)c2cccs2)CCOC(C)(C)C1 (configuration not stated) | 42 µg/mL (≈ 136 µM)
Cc1snc(SCc2ccc(Cl)cc2)c1C#N | < 0.3 µg/mL
COC(=O)c1ccc(C(=S)N2CCCCC2)cc1 | > 39.5 µg/mL
CC(=O)c1sc(Nc2cccc3ccccc23)nc1C.Cl | 5.2 µg/mL
S=C(NCc1ccco1)N1CCN(c2cccc(Cl)c2)CC1 | 12 µg/mL (≈ 35.7 µM)
Cn1c(SCC(=O)Nc2cccnc2Cl)nnc1-c1ccco1 | > 52.5 µg/mL
Cc1ccc2nc(C)c3c(c2c1)N(c1ccc(F)cc1)CC3 | 40.6 µg/mL (≈ 139 µM)
COC(=O)c1c(NC(=O)c2ccc(C)cc2)csc1C | < 0.6 µg/mL
CC(=O)Nc1ccc(/C=C/c2noc(-c3ccccc3O)n2)cc1 | < 0.2 µg/mL

Compound | solubility kinetic
CN(C)C(=O)C1CC(=O)OC12CCCCC2 (configuration not stated) | 28.2 µg/mL (≈ 125 µM)
Cc1nccn1CC(O)COc1ccc(Cl)cc1Cl (configuration not stated) | > 45.2 µg/mL
CC(=O)Nc1ccc(-c2csc(Nc3ccccn3)n2)cc1 | 0.5 µg/mL (≈ 1.61 µM)
COc1ccc(NC2CCCN(C(=O)c3cccnc3)C2)cc1 (configuration not stated) | > 46.7 µg/mL
CC1CCCC(C)N1CC(O)COCc1ccccc1.Cl (configuration not stated) | > 47.1 µg/mL
FC(F)(F)c1ccc(-n2cnc3ccccc32)nc1 | 13.5 µg/mL (≈ 51.3 µM)
CC(OC(=O)c1cccc(Cl)c1)C(=O)NC1CCCCC1C (configuration not stated) | 8.7 µg/mL (≈ 26.9 µM)
CC1C(=O)N2CCCc3cc(NC(=O)c4ccccc4F)cc1c32 (configuration not stated) | > 48.7 µg/mL
CS(=O)(=O)Nc1ccc(S(=O)(=O)N2CCCCCC2)cc1 | 48.3 µg/mL (≈ 145 µM)
CCn1c(SCc2cccc(OC)c2)nc2ccccc2c1=O | 0.8 µg/mL (≈ 2.45 µM)
O=C(CCl)Nc1ccc(S(=O)(=O)NC2=NCCCCC2)cc1 | > 51.6 µg/mL
O=C(COc1ccccc1Br)NC1CC1 | > 40.5 µg/mL
O=C(CN1C(=O)NC2(CCCC2)C1=O)OCCOc1ccccc1 | > 49.9 µg/mL
O=C(CN1CCN(Cc2ccccc2F)C1=O)NC1CCCC1 | > 47.9 µg/mL
CN(C1(C)CCS(=O)(=O)C1)S(=O)(=O)c1ccc(F)cc1 (configuration not stated) | > 48.2 µg/mL
Nn1c(SCC(=O)NC2CCCc3ccccc32)nnc1C1CC1 (configuration not stated) | > 51.5 µg/mL
Fc1cccc(NC(=S)N2CCn3cccc3C2c2cccnc2)c1 (configuration not stated) | 51.9 µg/mL (≈ 147 µM)
CCc1sc(C(=O)Nc2cccnc2)cc1Br | 3.9 µg/mL (≈ 12.5 µM)
O=C(NCCCN1CCCC1=O)Nc1ccccc1F | > 41.9 µg/mL
O=C(NCCC1CC1(Cl)Cl)Nc1ccccc1 (configuration not stated) | > 41 µg/mL
Cc1ccc(S(=O)(=O)CCN2CCN(c3ccccn3)CC2)cc1 | > 51.8 µg/mL
CC(=O)c1cccc(OCC(O)CNCCOc2ccc(C)cc2)c1 (configuration not stated) | 47.6 µg/mL (≈ 139 µM)
